Common to all, as to assay type: cell-based
The test system of one experiment is Fusarium moniliforme. The experiment can be described thus: Antifungal testing, MIC and MCIC. The note with it: comparison table.
In another experiment the test system is Aspergillus flavus. The experiment in a line: Antifungal testing, MIC and MCIC. The following applies: comparison table.
Another experiment concerns E. coli. The note with it: bacterial host; statement in words.

As to “KWCFRVCYRGICYRRCR [tachyplesin, natural tachyplesin, small peptide originally isolated from the hemocytes of the horseshoe crab, Tachypleus tridentatus]”, the “MIC FMO” value against Fusarium moniliforme (known antimicrobial compounds) was determined as 6.25 µg/mL; in the experiment with Fusarium moniliforme (value in parentheses), 2.8 µM. Also, the results for the “MIC AFL” value in the experiment with Aspergillus flavus (known antimicrobial compounds) and in the experiment on Aspergillus flavus (value in parentheses) were 6.25 µg/mL and 2.8 µM, respectively. Also, in the experiment with E. coli, the “toxicity to E. coli” value is listed as “significant toxicity”.

Regarding CMIII, the “MIC FMO” value with Fusarium moniliforme (known antimicrobial compounds) is 18.2 µg/mL; in the experiment with Fusarium moniliforme (value in parentheses) it was 4.6 µM. Also, the “MIC AFL” value was 60 µg/mL in the experiment with Aspergillus flavus (known antimicrobial compounds) and 15 µM with Aspergillus flavus (value in parentheses).

Take hordothionin: the figures for the “MIC FMO” value in the experiment on Fusarium moniliforme (known antimicrobial compounds) and in the experiment with Fusarium moniliforme (value in parentheses) were 45 µg/mL and 9 µM, respectively. Further, the “MIC AFL” value is 15 µg/mL with Aspergillus flavus (known antimicrobial compounds) and 3 µM in the experiment on Aspergillus flavus (value in parentheses).

Source of the values: patent publication US5580852A, “Derivatives of tachyplesin having inhibitory activity towards plant pathogenic fungi” (Pioneer Hi-Bred International, Inc., priority 1993, dated 1996).
